Experimental data as given in US20050170330A1, “Angiogensis models using nestin-expressing stem cells to image nascent blood vessels” (AntiCancer, Inc., priority 2003, published 2005).

Columns and labels:
[1] = test system: B16F10 murine melanoma cells; assay: Cord formation in vitro by B16F10 tumor cells; assay type: cell-based
Description: B16F10 murine melanoma cells are shown below to mimic endothelial cell behavior and the angiogenic process in vitro and in vivo. Cord formation in vitro by tumor cells is stimulated by hypoxia and vascular endothelial growth factor (VEGF) and inhibited by antibodies against VEGF and the VEGF KDR receptor (VEGF receptor 2).

[2] = test system: ND-GFP vessels growing from transplanted hair follicles; assay: ND-GFP vibrissa follicle transplantation into wounded nude-mouse skin, angiogenesis model; assay type: in vivo; conditions: nude mice with transplanted ND-GFP vibrissa follicles, compared with carrier-only control group
Description: For transplantation purposes, vibrissa follicles from ND-GFP transgenic mice is surgically obtained as discussed in Example 8. All follicles are then kept in DMEM/F-12 medium containing B-27 supplement (GIBCO/BRL).
Recipient nude mice are anesthetized, and a sample of full-thickness skin is folded and two neighboring full-thickness wounds ˜15 mm apart are made with a 2-mm biopsy punch. ND-GFP vibrissa follicles are then transplanted. The incision is closed with nylon sutures (6-0).
The mice are divided into an experimental group and a control group. The experimental group received a treatment series comprising vascular endothelial growth factor, a known angiogenesis promoting compound in a pharmaceutically acceptable carrier. The control group of mice receives only the carrier.
Following treatment, samples of subcutis of the transplanted mice are subsequently excised and directly observed by fluorescence microscopy and air-dried or prepared for frozen sections for immunohistochemical staining. […]
The mice are divided into an experimental group and a control group. The experimental group received a treatment series comprising vasoinhibin, a known angiogenesis inhibiting compound in a pharmaceutically acceptable carrier. The control group of mice receives only the carrier.

Substance: vascular endothelial growth factor
- cord formation in vitro by tumor cells [1]: stimulated
- angiogenic activity based on the amount of GFP activity [2]: higher degree of angiogenic activity
